Source: patent US11331299B2, “Medicinal use of serrulatane diterpenes” (The University of Sydney, priority 2016, dated 2022)
Like-named read-outs stand apart in the source and are kept apart here.

Assays:
CYP2D6 = CYP2D6 (Homo sapiens, UniProt P10635); assay: in vitro; details: human liver microsomes, probe dextromethorphan
BRD4(2) (h) bromodomain = biological target: T1, BRD4(2) (h) bromodomain (Homo sapiens, UniProt O60885); assay: Epigenetic binding assay, Bromodomain; details: for inhibition at 10 µM: read-out: % Inhibition of Control Specific Binding
T1 construct: Bromodomain

[1] = biological target: T2, IKK alpha(h) (substrate histone H3 full length) (Homo sapiens, UniProt O15111); assay: Epigenetic enzyme assay, Kinases; format: biochemical; details: read-out: % Inhibition of Control Values
T2 sequence (O15111 1-745): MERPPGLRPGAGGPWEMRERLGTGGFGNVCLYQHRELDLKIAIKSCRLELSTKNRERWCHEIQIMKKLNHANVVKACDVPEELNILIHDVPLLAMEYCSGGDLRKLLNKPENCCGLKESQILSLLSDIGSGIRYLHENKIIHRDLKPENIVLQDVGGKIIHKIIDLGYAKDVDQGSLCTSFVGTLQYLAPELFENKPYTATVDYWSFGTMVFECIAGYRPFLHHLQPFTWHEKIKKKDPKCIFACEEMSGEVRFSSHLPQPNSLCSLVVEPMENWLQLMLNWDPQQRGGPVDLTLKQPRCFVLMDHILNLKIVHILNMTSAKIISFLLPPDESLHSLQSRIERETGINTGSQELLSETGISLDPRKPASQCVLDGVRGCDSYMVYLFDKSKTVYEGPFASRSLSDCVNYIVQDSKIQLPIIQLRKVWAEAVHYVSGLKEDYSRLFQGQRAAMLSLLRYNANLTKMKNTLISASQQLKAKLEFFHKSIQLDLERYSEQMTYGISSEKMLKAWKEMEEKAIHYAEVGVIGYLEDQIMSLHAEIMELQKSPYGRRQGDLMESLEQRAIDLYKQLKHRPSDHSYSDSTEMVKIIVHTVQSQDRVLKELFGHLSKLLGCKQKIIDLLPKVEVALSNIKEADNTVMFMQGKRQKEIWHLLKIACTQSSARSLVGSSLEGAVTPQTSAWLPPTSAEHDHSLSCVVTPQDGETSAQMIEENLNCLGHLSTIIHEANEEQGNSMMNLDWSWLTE

UTX (h) = UTX (h) (Homo sapiens, UniProt O15550); assay: Epigenetic enzyme assay, Demethylases (KDMs); format: biochemical; details: for inhibition at 10 µM: read-out: % Inhibition of Control Values
UTX (h), sequence (O15550 whole entry): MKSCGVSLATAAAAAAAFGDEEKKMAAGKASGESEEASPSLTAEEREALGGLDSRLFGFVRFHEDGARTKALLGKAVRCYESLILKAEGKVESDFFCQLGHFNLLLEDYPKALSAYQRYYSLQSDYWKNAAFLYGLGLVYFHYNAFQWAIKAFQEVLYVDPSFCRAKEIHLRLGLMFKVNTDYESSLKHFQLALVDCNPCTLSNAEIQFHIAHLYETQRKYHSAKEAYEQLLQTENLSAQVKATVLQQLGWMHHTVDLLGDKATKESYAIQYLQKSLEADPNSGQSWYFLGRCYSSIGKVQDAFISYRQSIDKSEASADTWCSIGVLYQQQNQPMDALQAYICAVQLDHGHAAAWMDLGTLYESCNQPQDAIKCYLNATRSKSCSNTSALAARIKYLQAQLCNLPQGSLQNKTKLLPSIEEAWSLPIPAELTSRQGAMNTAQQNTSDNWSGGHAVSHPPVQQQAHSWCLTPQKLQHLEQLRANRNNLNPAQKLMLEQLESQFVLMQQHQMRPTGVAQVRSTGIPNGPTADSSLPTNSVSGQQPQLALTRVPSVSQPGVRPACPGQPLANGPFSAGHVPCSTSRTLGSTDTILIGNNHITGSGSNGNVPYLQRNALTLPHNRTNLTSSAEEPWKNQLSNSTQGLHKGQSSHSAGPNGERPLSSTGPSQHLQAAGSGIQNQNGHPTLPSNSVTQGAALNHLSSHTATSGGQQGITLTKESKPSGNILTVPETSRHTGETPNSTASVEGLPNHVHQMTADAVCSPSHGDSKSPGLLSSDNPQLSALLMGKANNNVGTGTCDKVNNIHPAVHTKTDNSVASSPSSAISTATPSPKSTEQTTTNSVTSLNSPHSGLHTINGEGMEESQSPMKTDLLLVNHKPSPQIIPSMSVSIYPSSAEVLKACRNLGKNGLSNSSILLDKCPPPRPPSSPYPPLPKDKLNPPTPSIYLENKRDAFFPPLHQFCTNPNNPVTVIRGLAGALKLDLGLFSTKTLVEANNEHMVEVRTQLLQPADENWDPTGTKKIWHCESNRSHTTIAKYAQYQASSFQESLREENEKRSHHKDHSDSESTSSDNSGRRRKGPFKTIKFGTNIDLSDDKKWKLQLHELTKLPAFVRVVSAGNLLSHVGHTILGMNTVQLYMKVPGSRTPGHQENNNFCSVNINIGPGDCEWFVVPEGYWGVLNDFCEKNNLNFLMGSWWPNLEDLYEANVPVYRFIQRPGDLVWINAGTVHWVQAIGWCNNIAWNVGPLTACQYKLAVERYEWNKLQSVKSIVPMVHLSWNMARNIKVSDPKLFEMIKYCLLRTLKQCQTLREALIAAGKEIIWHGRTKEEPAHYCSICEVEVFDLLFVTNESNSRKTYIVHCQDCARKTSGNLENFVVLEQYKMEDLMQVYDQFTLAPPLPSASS

ATAD2A (h) bromodomain = biological target: T3, ATAD2A (h) bromodomain (Homo sapiens, UniProt Q6PL18); assay: Epigenetic binding assay, Bromodomain; details: for inhibition at 10 µM: read-out: % Inhibition of Control Specific Binding
T3 construct: Bromodomain
T3 sequence (Q6PL18 980-1092 limits assumed): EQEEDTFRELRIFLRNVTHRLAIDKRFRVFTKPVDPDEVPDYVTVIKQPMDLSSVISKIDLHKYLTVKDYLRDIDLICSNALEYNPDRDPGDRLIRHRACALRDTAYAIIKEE

PRMT5 complex (h) = PRMT5 complex (h) (Homo sapiens, UniProt O14744); assay: Epigenetic enzyme assay, Methyltransferases (MTs); format: biochemical; details: read-out: % Inhibition of Control Values
PRMT5 complex (h), sequence (O14744 whole entry): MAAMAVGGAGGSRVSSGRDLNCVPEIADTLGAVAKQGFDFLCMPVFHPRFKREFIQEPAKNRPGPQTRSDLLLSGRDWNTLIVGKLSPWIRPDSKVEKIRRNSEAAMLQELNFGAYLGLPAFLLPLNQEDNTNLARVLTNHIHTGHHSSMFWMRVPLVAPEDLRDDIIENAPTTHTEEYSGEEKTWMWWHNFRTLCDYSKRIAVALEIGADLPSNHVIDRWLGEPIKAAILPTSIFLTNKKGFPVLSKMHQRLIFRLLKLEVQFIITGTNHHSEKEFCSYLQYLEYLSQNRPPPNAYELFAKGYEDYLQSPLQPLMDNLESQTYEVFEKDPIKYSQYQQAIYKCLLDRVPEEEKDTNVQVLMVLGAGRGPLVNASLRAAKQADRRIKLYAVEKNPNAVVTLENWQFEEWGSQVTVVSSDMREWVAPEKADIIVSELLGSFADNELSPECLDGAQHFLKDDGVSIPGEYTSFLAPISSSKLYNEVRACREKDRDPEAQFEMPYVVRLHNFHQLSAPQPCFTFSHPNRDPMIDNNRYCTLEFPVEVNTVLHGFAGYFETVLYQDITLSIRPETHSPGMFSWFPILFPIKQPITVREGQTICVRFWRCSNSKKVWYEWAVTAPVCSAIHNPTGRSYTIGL
PRMT5 complex (h), sequence (Q9BQA1 whole entry partner): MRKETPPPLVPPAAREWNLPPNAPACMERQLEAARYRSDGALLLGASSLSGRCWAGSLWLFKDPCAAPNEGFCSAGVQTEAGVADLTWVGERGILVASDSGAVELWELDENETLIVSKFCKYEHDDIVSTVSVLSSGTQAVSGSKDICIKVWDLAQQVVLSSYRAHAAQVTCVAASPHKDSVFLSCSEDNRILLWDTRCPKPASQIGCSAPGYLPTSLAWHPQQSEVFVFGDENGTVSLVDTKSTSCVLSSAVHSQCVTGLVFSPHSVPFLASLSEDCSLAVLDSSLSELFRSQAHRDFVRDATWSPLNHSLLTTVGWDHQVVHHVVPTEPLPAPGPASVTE

Hs 852.T = assay: OncoPanel cell proliferation assay (10-day); format: cell-based, human; details: for EC50 / GI50 / IC50: Homo sapiens, Skin (Melanoma); for EC50: read-out: Cell Count EC50; for GI50: read-out: Cell Count GI50; for IC50: read-out: Cell Count IC50
[2] = biological target: MSK1(h) (substrate histone H3 full length) (Homo sapiens, UniProt O75582); assay: Epigenetic enzyme assay, Kinases; format: biochemical; details: read-out: % Inhibition of Control Values
MSK1(h) (substrate histone H3 full length), sequence (O75582 whole entry): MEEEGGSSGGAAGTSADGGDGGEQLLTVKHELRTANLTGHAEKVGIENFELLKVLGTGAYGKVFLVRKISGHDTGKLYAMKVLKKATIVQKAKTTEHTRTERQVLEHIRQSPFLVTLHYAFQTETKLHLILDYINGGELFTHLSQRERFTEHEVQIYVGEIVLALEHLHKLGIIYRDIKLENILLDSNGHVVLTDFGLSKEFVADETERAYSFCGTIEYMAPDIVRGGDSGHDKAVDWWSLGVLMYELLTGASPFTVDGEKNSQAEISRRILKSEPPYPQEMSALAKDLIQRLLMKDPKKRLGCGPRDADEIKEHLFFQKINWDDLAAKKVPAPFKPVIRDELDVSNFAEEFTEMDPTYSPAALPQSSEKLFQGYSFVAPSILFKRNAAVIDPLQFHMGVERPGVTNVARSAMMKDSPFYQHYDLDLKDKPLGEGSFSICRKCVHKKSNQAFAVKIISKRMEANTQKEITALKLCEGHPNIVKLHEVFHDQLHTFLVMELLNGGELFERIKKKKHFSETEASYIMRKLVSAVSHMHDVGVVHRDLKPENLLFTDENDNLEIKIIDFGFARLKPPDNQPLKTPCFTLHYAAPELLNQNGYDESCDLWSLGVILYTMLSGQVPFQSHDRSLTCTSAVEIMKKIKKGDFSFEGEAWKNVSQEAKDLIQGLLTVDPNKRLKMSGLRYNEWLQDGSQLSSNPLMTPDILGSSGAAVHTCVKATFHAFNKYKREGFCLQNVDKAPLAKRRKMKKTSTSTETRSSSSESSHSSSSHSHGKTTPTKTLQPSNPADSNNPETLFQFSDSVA

Angiotensin, AT1/ACE = assay: Angiotensin, AT1/ACE, guinea pig ileum (isotonic); design: species or system Dunkin Hartley Guinea pig; details: 10 μM; assay year 2015
Procedure: (§1) The in vitro pharmacological studies were conducted by Eurofins PanLab (Taiwan) using the parameters shown in Table 13 with respect to appropriate literature references.

[3] = biological target: T4, sirtuin 2 (h) (inhibitor effect) (Homo sapiens, UniProt Q8IXJ6); assay: Epigenetic enzyme assay, Sirtuins; format: biochemical; details: 10 μM; read-out: % Inhibition of Control Values
T4 sequence (Q8IXJ6 1-389): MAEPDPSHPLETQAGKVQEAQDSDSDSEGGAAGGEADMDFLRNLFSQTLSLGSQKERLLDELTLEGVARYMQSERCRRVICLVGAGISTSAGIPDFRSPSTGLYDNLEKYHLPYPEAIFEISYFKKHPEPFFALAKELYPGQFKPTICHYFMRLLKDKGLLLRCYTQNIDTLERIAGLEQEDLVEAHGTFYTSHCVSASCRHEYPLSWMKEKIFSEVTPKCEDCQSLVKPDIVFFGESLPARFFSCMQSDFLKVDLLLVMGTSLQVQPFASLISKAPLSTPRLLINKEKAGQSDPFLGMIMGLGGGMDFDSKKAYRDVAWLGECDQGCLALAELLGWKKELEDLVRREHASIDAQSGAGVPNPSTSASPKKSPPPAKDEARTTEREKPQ

JMJD2E (h) = biological target: T5, JMJD2E (h) (Homo sapiens, UniProt B2RXH2); assay: Epigenetic enzyme assay, Demethylases (KDMs); format: biochemical; details: for inhibition at 10 µM: read-out: % Inhibition of Control Values
T5 sequence (B2RXH2 1-506): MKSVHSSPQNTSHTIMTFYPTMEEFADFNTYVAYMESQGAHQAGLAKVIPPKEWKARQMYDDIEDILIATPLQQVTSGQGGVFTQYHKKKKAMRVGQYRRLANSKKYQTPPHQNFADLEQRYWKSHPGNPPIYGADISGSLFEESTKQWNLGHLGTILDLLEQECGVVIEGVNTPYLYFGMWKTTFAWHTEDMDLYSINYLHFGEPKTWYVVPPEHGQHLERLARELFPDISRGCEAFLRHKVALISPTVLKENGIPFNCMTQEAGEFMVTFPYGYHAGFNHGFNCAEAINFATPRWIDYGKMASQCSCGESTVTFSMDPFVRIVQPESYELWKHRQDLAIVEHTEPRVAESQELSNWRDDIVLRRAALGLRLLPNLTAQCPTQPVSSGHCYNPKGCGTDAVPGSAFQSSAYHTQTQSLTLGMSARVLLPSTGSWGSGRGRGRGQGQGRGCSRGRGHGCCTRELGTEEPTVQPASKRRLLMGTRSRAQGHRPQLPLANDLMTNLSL

Thioredoxin Reductase = biological target: T6, Thioredoxin Reductase (Escherichia coli, UniProt P0A9P4); assay: Thioredoxin Reductase; format: biochemical, E. coli
T6 construct: host or cells: E. coli
T6 sequence (P0A9P4 2-321): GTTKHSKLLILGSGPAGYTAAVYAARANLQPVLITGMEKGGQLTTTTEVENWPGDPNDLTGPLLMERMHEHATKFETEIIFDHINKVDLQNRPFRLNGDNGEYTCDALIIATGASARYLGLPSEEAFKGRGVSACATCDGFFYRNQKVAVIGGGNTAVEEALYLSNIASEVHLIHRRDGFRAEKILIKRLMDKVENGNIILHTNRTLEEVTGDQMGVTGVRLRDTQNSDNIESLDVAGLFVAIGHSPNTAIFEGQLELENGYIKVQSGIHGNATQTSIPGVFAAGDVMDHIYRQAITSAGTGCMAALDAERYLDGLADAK
Procedure: as §1

[4] = Table 11, inhibition/concentration-response curve
[5] = assay year 2014, read-out: % Control Response
[6] = assay year 2015, read-out: % Control Response

CYP2D6, sequence (P10635 whole entry): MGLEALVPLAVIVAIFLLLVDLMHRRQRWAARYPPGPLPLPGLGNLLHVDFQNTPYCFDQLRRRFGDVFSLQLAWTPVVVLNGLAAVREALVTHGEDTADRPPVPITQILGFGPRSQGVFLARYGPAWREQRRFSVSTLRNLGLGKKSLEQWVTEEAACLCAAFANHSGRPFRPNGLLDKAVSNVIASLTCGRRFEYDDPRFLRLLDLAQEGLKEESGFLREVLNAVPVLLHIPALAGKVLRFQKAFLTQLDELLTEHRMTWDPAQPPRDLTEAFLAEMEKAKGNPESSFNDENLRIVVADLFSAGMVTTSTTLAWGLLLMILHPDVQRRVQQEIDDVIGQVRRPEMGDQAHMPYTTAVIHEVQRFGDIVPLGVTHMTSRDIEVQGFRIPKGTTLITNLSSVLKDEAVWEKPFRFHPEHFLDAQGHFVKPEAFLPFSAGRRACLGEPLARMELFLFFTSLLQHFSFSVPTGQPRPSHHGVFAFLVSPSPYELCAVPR

SMILES | inhibition at 1 µM (CYP2D6) [%] | inhibition at 10 µM (CYP2D6) [%] | inhibition at 10 µM (BRD4(2) (h) bromodomain; 10 μM) [%] | inhibition at 10 µM [1] [%] | inhibition at 10 µM (UTX (h); 10 μM) [%] | inhibition at 10 µM (ATAD2A (h) bromodomain; 10 μM) [%] | inhibition at 10 µM (PRMT5 complex (h)) [%] | EC50 (Hs 852.T) [µM] | GI50 (Hs 852.T) [µM] | IC50 (Hs 852.T) [µM] | inhibition at 10 µM [2] [%] | % Control Response, Agonist (Angiotensin, AT1/ACE) [%] | % Control Response, Antagonist (Angiotensin, AT1/ACE) [%] | inhibition at 10 µM [3] [%] | inhibition at 10 µM (JMJD2E (h); 10 μM) [%] | remaining activity at 10 µM (Thioredoxin Reductase; [5]) [%] | remaining activity at 10 µM (Thioredoxin Reductase; [6]) [%] | other results
CC(C)=CCC[C@H](CO)[C@@H]1CC[C@@H](C)c2c1cc(C)c(O)c2O [Compound 1, 7,8,18-trihydroxyserrulat-14-ene] | 12 to 21 | 45 | 76 | 26 | 68 | 100 | 8 | 2.49 | 2.42 | 2.56 | 6 | 0 | 34 | -4 | 65 | 71 | 35 | % Inhibition of Control Specific Binding (BRD4(2) (h) bromodomain; 10 μM): significant inhibitory activity; IC50 (BRD4(2) (h) bromodomain; Table 9, inhibition/concentration-response curve): 5.6 µM; % Inhibition of Control Values (UTX (h); 10 μM): significant inhibitory activity; IC50 (UTX (h); [4]): 6.7 µM; % Inhibition of Control Specific Binding (ATAD2A (h) bromodomain; 10 μM): significant inhibitory activity; IC50 (ATAD2A (h) bromodomain; Table 9, inhibition/concentration-response curve, read-out: IC50): 3.1 µM; Relative cell count (%) Mean (Hs 852.T; 3.00E+00 microM): 41.6%; Relative cell count (%) Mean (Hs 852.T; 3.00E+01 microM): 2.7%; Relative cell count (%) Mean (Hs 852.T; 3.01E−01 microM): 95.3%; Relative cell count (%) Mean (Hs 852.T; 3.01E−02 microM): 94.5%; Relative cell count (%) Mean (Hs 852.T; 3.02E−03 microM): 104.5%; Relative cell count (%) Mean (Hs 852.T; 9.49E+00 microM): 13.1%; Relative cell count (%) Mean (Hs 852.T; 9.51E−01 microM): 85.5%; Relative cell count (%) Mean (Hs 852.T; 9.52E−02 microM): 92.2%; Relative cell count (%) Mean (Hs 852.T; 9.53E−03 microM): 100.2%; Relative cell count (%) Mean (Hs 852.T; 9.55E−04 microM): 104.3%; % Inhibition of Control Values (JMJD2E (h); 10 μM): significant inhibitory activity; IC50 (JMJD2E (h); [4]): 4.7 µM; % Control Response (Thioredoxin Reductase; 10 μM, assay year 2014): inhibited the activity
CC(C)=CCC[C@@H]1C(O)Oc2c(C)cc(O)c3c2[C@H]1CC[C@H]3C (stereo partly drawn) [Compound 2, 5,18-epoxyserrulat-14-en-8,18-diol] | 12 to 21 | 44 | 16 | 28 | 5 | 16 | -8 | 15.4 | 14.7 | 15.4 | 2 | 0 | 10 | 6 | 10 | 6 | 12 | –
CC(C)=CCC[C@@H]1COc2c(C)cc(O)c3c2[C@H]1CC[C@H]3C [Compound 3, 5,18-epoxy-8-hydroxyserrulat-14-ene] | – | – | 13 | 14 | 27 | 9 | 9 | – | – | – | 10 | 0 | 17 | -19 | 6 | – | 9 | –
CC(C)=CCC[C@H](C)[C@@H]1CC[C@@H](C)c2c1cc(C)c(O)c2O [Compound 4, 7,8-dihydroxyserrulat-14-ene] | 12 to 21 | 45 | – | – | – | – | – | 12 | 11.6 | 12 | – | – | – | – | – | – | – | –
